Values quoted from earlier work as cited in patent publication US20190078102A1, “BIOSYNTHETIC PRODUCTION OF STEVIOL GLYCOSIDES AND PROCESSES THEREFORE” (Conagen-Inc., priority 2017, published 2019).

Conditions: background statement

For `C=C1C[C@@]23CC[C@H]4[C@@](C)(CCC[C@@]4(C)C(=O)O[C@@H]4O[C@H](CO)[C@@H](O)[C@H](O)[C@H]4O)[C@@H]2CC[C@]1(O[C@@H]1O[C@H](CO)[C@@H](O)[C@H](O)[C@H]1O[C@@H]1O[C@H](CO)[C@@H](O)[C@H](O)[C@H]1O)C3` [stevioside], the “times sweeter than sucrose” value is given as 100-150 times.
